Test results published in the NIST ThermoML archive (doi:10.1016/j.fluid.2010.01.027).

Experiment: wn = mass fraction of the nth substance listed
Conditions: Gas, sonar gas analyzer

FC(F)(F)C(F)(F)C(F)(F)F [octafluoropropane] + FC(F)(F)C(F)(F)C(F)(F)C(F)(F)F
speed of sound [m/s]
Conditions | w1 = 0.397 | w1 = 0.83
248.2 K, 10 kPa | – | 105.12
248.2 K, 13 kPa | – | 105.03
248.2 K, 20 kPa | – | 104.84
248.2 K, 27 kPa | – | 104.58
248.2 K, 30 kPa | – | 104.45
248.2 K, 33 kPa | – | 104.36
248.2 K, 40 kPa | – | 104.12
248.2 K, 47 kPa | – | 103.84
248.2 K, 50 kPa | – | 103.75
248.2 K, 53 kPa | – | 103.57
248.2 K, 60 kPa | – | 103.27
248.2 K, 67 kPa | – | 103.07
259.2 K, 10 kPa | 102.59 | 107.4
259.2 K, 20 kPa | 102.16 | 107.18
259.2 K, 30 kPa | 101.68 | 106.95
259.2 K, 50 kPa | 101.06 | 106.3
259.2 K, 70 kPa | 100.12 | 105.81
259.2 K, 100 kPa | – | 104.56
259.2 K, 150 kPa | – | 102.68
259.2 K, 200 kPa | – | 101.95
271.3 K, 10 kPa | – | 109.58
271.3 K, 20 kPa | – | 109.17
271.3 K, 30 kPa | – | 108.68
271.3 K, 50 kPa | – | 107.95
271.3 K, 70 kPa | – | 107.66
271.3 K, 100 kPa | – | 106.4
271.3 K, 150 kPa | – | 104.9
271.3 K, 200 kPa | – | 103.44
271.3 K, 250 kPa | – | 102.59
271.4 K, 10 kPa | 104.64 | –
271.4 K, 20 kPa | 104.3 | –
271.4 K, 30 kPa | 103.82 | –
271.4 K, 50 kPa | 103.1 | –
271.4 K, 70 kPa | 102.4 | –
271.4 K, 100 kPa | 101.14 | –
271.4 K, 150 kPa | 99.12 | –
283.1 K, 10 kPa | 106.56 | 112.12
283.1 K, 20 kPa | 106.36 | 111.72
283.1 K, 30 kPa | 105.98 | 111.47
283.1 K, 50 kPa | 105.5 | 111.19
283.1 K, 70 kPa | 104.76 | 110.59
283.1 K, 100 kPa | 103.71 | 109.75
283.1 K, 150 kPa | 101.86 | 108.4
283.1 K, 200 kPa | 100.08 | 106.92
283.1 K, 250 kPa | – | 105.34
283.1 K, 297 kPa | – | 103.72
283.1 K, 350 kPa | – | 101.99
283.1 K, 400 kPa | – | 100.1
294 K, 10 kPa | 109.01 | –
294 K, 20 kPa | 108.7 | –
294 K, 30 kPa | 108.4 | –
294 K, 50 kPa | 107.67 | –
294 K, 70 kPa | 107.07 | –
294 K, 100 kPa | 106.22 | –
294 K, 150 kPa | 104.61 | –
294 K, 200 kPa | 103.01 | –
294.1 K, 10 kPa | – | 114.96
294.1 K, 20 kPa | – | 114.62
294.1 K, 30 kPa | – | 114.35
294.1 K, 50 kPa | – | 113.75
294.1 K, 70 kPa | – | 113.21
294.1 K, 100 kPa | – | 112.3
294.1 K, 150 kPa | – | 111
294.1 K, 200 kPa | – | 109.85
301.4 K, 10 kPa | – | 116.15
301.4 K, 20 kPa | – | 116.05
301.4 K, 30 kPa | – | 115.78
301.4 K, 50 kPa | – | 115.29
301.4 K, 70 kPa | – | 114.72
301.4 K, 100 kPa | – | 114.03
301.4 K, 150 kPa | – | 112.72
301.4 K, 200 kPa | – | 111.59
302.1 K, 10 kPa | 110.14 | –
302.1 K, 20 kPa | 109.74 | –
302.1 K, 30 kPa | 109.67 | –
302.1 K, 50 kPa | 109.29 | –
302.1 K, 70 kPa | 108.73 | –
302.1 K, 100 kPa | 107.89 | –
